Where two headings read alike, the source gives them in different places.
Experiments:
[1] = tested on: Key Broadleaf Weed and Crop Species; test: Post-Emergent Test II (Table 5); type: in vivo; conditions: post-emergence, 336 h; for pest or weed control at 70 g/ha: application rate 70 (kg ai/ha; footnote: g ai/ha); for pest or weed control at 140 g/ha: application rate 140 (kg ai/ha; footnote: g ai/ha)
Outline: (§1)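 Post-emergence greenhouse spray, 1st-2nd true leaf stage; track sprayer, 187 L/ha; acetone/DMSO stock diluted in aqueous acetone/IPA/DMSO with Atplus 411F and Triton X-155; rates 1× to 1/16×; subirrigated; visual injury 0 (none) to 100% (complete kill) at 14 days.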

[2] = tested on: Key Grass and Sedge Weeds as well as Grass Crops; test: Post-Emergent Test II (Table 6); type: in vivo; conditions: post-emergence, 336 h, 14 days after application; for pest or weed control at 70 g/ha: 70 g ai/ha; for pest or weed control at 140 g/ha: 140 g ai/ha
Outline: as §1

[3] = Abutilon theophrasti, ABUTH: velvetleaf (Abutilon theophrasti), read-out: Visual Growth Reduction (%) 14 Days After Application ABUTH
[4] = Amaranthus retroflexus, AMARE: redroot pigweed (Amaranthus retroflexus), read-out: Visual Growth Reduction (%) 14 Days After Application AMARE
[5] = Brassica napus, BRSSS: oilseed rape, canola (Brassica napus), read-out: Visual Growth Reduction (%) 14 Days After Application BRSSS
[6] = Chenopodium album, CHEAL: lambsquarters (Chenopodium album), read-out: Visual Growth Reduction (%) 14 Days After Application CHEAL
[7] = Euphorbia heterophylla, EPHHL: wild poinsettia (Euphorbia heterophylla), read-out: Visual Growth Reduction (%) 14 Days After Application EPHHL
[8] = Helianthus annuus, HELAN: sunflower (Helianthus annuus), read-out: Visual Growth Reduction (%) 14 Days After Application HELAN
[9] = Viola tricolor, VIOTR: wild pansy (Viola tricolor), read-out: Visual Growth Reduction (%) 14 Days After Application VIOTR
[10] = CYPSS, read-out: Visual Growth Reduction (%) 14 Days After Application CYPSS
[11] = DIGSA: crabgrass (Digitaria sanguinalis), read-out: Visual Growth Reduction (%) 14 Days After Application DIGSA
[12] = ECHSS, read-out: Visual Growth Reduction (%) 14 Days After Application ECHSS
[13] = ORYSS (crop), read-out: Visual Growth Reduction (%) 14 Days After Application ORYSS
[14] = SETFA: giant foxtail (Setaria faberi), read-out: Visual Growth Reduction (%) 14 Days After Application SETFA
[15] = SORVU: grain sorghum (Sorghum vulgare), read-out: Visual Growth Reduction (%) 14 Days After Application SORVU
[16] = TRZSS (crop), read-out: Visual Growth Reduction (%) 14 Days After Application TRZSS
[17] = ZEAMX: maize, corn (Zea mays), read-out: Visual Growth Reduction (%) 14 Days After Application ZEAMX

Compound | pest or weed control at 70 g/ha [1, 3] | pest or weed control at 140 g/ha [1, 3] | pest or weed control at 70 g/ha [1, 4] | pest or weed control at 140 g/ha [1, 4] | pest or weed control at 70 g/ha [1, 5] | pest or weed control at 140 g/ha [1, 5] | pest or weed control at 70 g/ha [1, 6] | pest or weed control at 140 g/ha [1, 6] | pest or weed control at 70 g/ha [1, 7] | pest or weed control at 140 g/ha [1, 7] | pest or weed control at 70 g/ha [1, 8] | pest or weed control at 140 g/ha [1, 8] | pest or weed control at 70 g/ha [1, 9] | pest or weed control at 140 g/ha [1, 9] | pest or weed control at 70 g/ha [2, 10] | pest or weed control at 140 g/ha [2, 10] | pest or weed control at 70 g/ha [2, 11] | pest or weed control at 140 g/ha [2, 11] | pest or weed control at 70 g/ha [2, 12] | pest or weed control at 140 g/ha [2, 12] | further results
COc1c(N)nc(-c2ccc(Cl)c(F)c2C)nc1C(=O)O [Compound 64] | 0 to 29% | 0 to 29% | 60 to 74% | 75 to 84% | 0 to 29% | 0 to 29% | 95 to 100% | 95 to 100% | 0 to 29% | 0 to 29% | 45 to 59% | 85 to 94% | 0 to 29% | 0 to 29% | 0 to 29% | 0 to 29% | 0 to 29% | 0 to 29% | 0 to 29% | 0 to 29% | pest or weed control at 70 g/ha [2, 13]: 0 to 29%; pest or weed control at 140 g/ha [2, 13]: 0 to 29%; pest or weed control at 70 g/ha [2, 14]: 0 to 29%; pest or weed control at 140 g/ha [2, 14]: 0 to 29%; pest or weed control at 70 g/ha [2, 15]: 0 to 29%; pest or weed control at 140 g/ha [2, 15]: 0 to 29%; pest or weed control at 70 g/ha [2, 16]: 0 to 29%; pest or weed control at 140 g/ha [2, 16]: 0 to 29%; pest or weed control at 70 g/ha [2, 17]: 0 to 29%; pest or weed control at 140 g/ha [2, 17]: 0 to 29%; melting point: 140 to 143 °C
Cc1c(-c2cc(N)c(Cl)c(C(=O)O)n2)ccc(Cl)c1Cl [Compound 28] | 95 to 100% | 95 to 100% | 95 to 100% | 95 to 100% | 60 to 74% | 75 to 84% | 95 to 100% | 95 to 100% | 0 to 29% | 0 to 29% | 85 to 94% | 85 to 94% | 0 to 29% | 0 to 29% | 0 to 29% | 0 to 29% | 0 to 29% | 0 to 29% | 0 to 29% | 0 to 29% | pest or weed control at 70 g/ha [2, 13]: 0 to 29%; pest or weed control at 140 g/ha [2, 13]: 0 to 29%; pest or weed control at 70 g/ha [2, 14]: 0 to 29%; pest or weed control at 140 g/ha [2, 14]: 0 to 29%; pest or weed control at 70 g/ha [2, 15]: 0 to 29%; pest or weed control at 140 g/ha [2, 15]: 0 to 29%; pest or weed control at 70 g/ha [2, 16]: 0 to 29%; pest or weed control at 140 g/ha [2, 16]: 0 to 29%; pest or weed control at 70 g/ha [2, 17]: 30 to 44%; pest or weed control at 140 g/ha [2, 17]: 60 to 74%; melting point: 174 to 175 °C
COC(=O)c1nc(-c2ccc(C(F)(F)F)nc2)nc(N)c1OC [Compound 43, methyl 6-amino-5-methoxy-2-(6-(trifluoromethyl)pyridin-3-yl)pyrimidine-4-carboxylate] | 0 to 29% | 0 to 29% | 30 to 44% | 60 to 74% | 30 to 44% | 45 to 59% | 0 to 29% | 0 to 29% | 30 to 44% | 60 to 74% | 0 to 29% | 30 to 44% | 0 to 29% | 0 to 29% | 0 to 29% | 60 to 74% | 30 to 44% | 60 to 74% | 0 to 29% | 0 to 29% | pest or weed control at 70 g/ha [2, 13]: 0 to 29%; pest or weed control at 140 g/ha [2, 13]: 0 to 29%; pest or weed control at 70 g/ha [2, 14]: 0 to 29%; pest or weed control at 140 g/ha [2, 14]: 0 to 29%; pest or weed control at 70 g/ha [2, 15]: 0 to 29%; pest or weed control at 140 g/ha [2, 15]: 0 to 29%; pest or weed control at 70 g/ha [2, 16]: 0 to 29%; pest or weed control at 140 g/ha [2, 16]: 0 to 29%; pest or weed control at 70 g/ha [2, 17]: 0 to 29%; pest or weed control at 140 g/ha [2, 17]: 0 to 29%; melting point: 148 to 149 °C

From patent US10765114B2, “4-amino-6-(pyridyl and 2-substitutedphenyl)-picolinates and 6-amino-2-(pyridyl and 2-substitutedphenyl)-pyrimidine-4-carboxylates and their use as herbicides” (Dow AgroSciences LLC, priority 2013, dated 2020)
